Assay results taken from patent publication US20160081986A1, “LONG-ACTING SPIRO-ISOXAZOLINE ANTIPARASITIC COMPOSITIONS” (priority 2013, published 2016).

Legend:
[1] = test system: ticks (Ixodes scapularis); test: 6 Month PKPD study: efficacy against ticks on beagle dogs; type: in vivo; conditions: for Geometric mean live ticks (LT): dogs, 25 mg/kg topical on Day 0; for % Reduction live ticks: vs control
Protocol: (§1) The spiro-azetidine isoxazoline, (S)-1-(5′-(5-(3,5-dichloro-4-fluorophenyl)-5-(trifluoromethyl)-4,5-dihydroisoxazol-3-yl)-3′H-spiro[azetidine-3,1′-isobenzofuran]-1-yl)-2-(methylsulfonyl)ethanone (Compound 1) was used to conduct an in-vivo long-acting efficacy study.
(§2) The study assessed the efficacy of a 25 mg/kg (0.1 mL/kg) topical dose of Compound 1 versus control against fleas (Ctenocephalides felis) and ticks (Ixodes scapularis) on beagle dogs. The formulation was butyl digol:dimethyl isosorbide (90:10 v/v %), selected as it had excellent solubility for Compound 1. Eight male and eight female dogs were acclimated to the testing facility. On Day 0 of the study, each animal received a topical dose of Compound 1 or control (formulation without Compound 1). On Days 56, 89, 117, 145, and 173, animals were artificially infested with about 100 adult unfed fleas. Flea counts were conducted 24 hours post infestation. At each count, all fleas were removed from the dogs. On Days 55, 88, 116, 144, and 172, all dogs were infested with about 50 viable, unfed adult ticks. Tick counts were conducted 48 hours post infestation. At each count, all ticks were removed from the dogs. Further, some hair was removed from the left or right shoulder from three individual dogs from each treatment group 26 days post dose. The hair from each dog was equally divided and placed into two separate 20 mL scintillation vials. Ten female Rhipicephalus sanguineus and ten female Ixodes scapularis ticks were placed in the vials with the hair. Ticks were evaluated for viability at 2-4 hours, 24 hours, 48 hours and 72 hours post vial infestation.

[2] = test system: fleas (Ctenocephalides felis); test: 6 Month PKPD study: efficacy against fleas on beagle dogs; type: in vivo; conditions: for Geometric mean live fleas (LF): dogs, 25 mg/kg topical on Day 0; for % Reduction live fleas: vs control
Protocol: as §1, §2

[3] = Solubility of Compound 1 in the formulation; type: physicochemical; conditions: butyl digol:dimethyl isosorbide (90:10 v/v %)
Protocol: as §2

[4] = Franz diffusion cell screening (FDCS), flux and Kp; type: in vitro ADME, canine
Protocol: FDCS yields flux rates and permeation constants for the formulations through a fixed membrane (e.g., canine-, feline-, and bovine-skin).
Canine skin, stored at −20° C. for a maximum of 1 year, was thawed, trimmed, and dermatomed to give a thin layer of skin about 0.8-1.5 mm in thickness. The skin was mounted onto the Franz diffusion cell and equilibrated with the receptor media, 50:50 v/v % EtOH:Milli-Q water, for 2 to 4 hours. The receptor media was selected to provide sink conditions for Compound 1. Once equilibrated, test formulations were applied to the donor side, generally 50 μL/cm^2. Samples were generally obtained at 12, 24, 30, 36, 42, and 48 hours, but can be obtained at any six timepoints out to 72 hours. A control vehicle of with Compound 1 (250 mg/mL) in butyl digol:dimethyl isosorbide (90:10 v/v %) was included in every FDCS study.
Post experiment samples were stored at 4° C. until analysed for Compound 1 concentration by LCMS. Cumulative amount of Compound 1 in ng/cm^2 was calculated and plotted versus time. The gradient of straight line portion of the graph yields the flux value (ng/cm^2/hr) for a given formulation, FIG. 1. The flux can be divided by the applied concentration of Compound 1 to yield the permeability constant Kp (cm/hr)—often converted to a log 10 scale.

[5] = test system: Ixodes scapularis ticks; test: Tick infested hair samples from treated dogs (contact activity); type: in vivo; conditions: for # Dead Ticks (mean): hair taken 26 days post dose, ten ticks per vial; for % Reduction: vs control
Protocol: as §2

[6] = test system: Rhipicephalus sanguineus ticks; test: as above; type: in vivo; conditions: for # Dead Ticks (mean): hair taken 26 days post dose, ten ticks per vial; for % Reduction: vs control
Protocol: as §2

[7] = 25 mg/kg topical, butyl digol and dimethyl isosorbide, for 5 months

CS(=O)(=O)CC(=O)N1CC2(C1)OCc1cc(C3=NO[C@@](c4cc(Cl)c(F)c(Cl)c4)(C(F)(F)F)C3)ccc12 [Compound 1, (S)-1-(5′-(5-(3,5-dichloro-4-fluorophenyl)-5-(trifluoromethyl)-4,5-dihydroisoxazol-3-yl)-3′H-spiro[azetidine-3,1′-isobenzofuran]-1-yl)-2-(methylsulfonyl)ethanone]
control of ticks (reduction in geometric mean counts vs placebo) [1, 7]: > 95% | Geometric mean live ticks (LT) ([1]; 57 days): 0.0 | Geometric mean live ticks (LT) ([1]; 90 days): 0.0 | Geometric mean live ticks (LT) ([1]; 118 days): 0.1 | Geometric mean live ticks (LT) ([1]; 146 days): 0.3 | Geometric mean live ticks (LT) ([1]; 174 days): 4.5 | % Reduction live ticks ([1]; 25 mg/kg topical, 57 days): 100% | % Reduction live ticks ([1]; 25 mg/kg topical, 90 days): 100% | % Reduction live ticks ([1]; 25 mg/kg topical, 118 days): 99.1% | % Reduction live ticks ([1]; 25 mg/kg topical, 146 days): 97.3% | % Reduction live ticks ([1]; 25 mg/kg topical, 174 days): 64.3% | control of fleas (reduction in geometric mean counts vs placebo) [2, 7]: > 95% | Geometric mean live fleas (LF) ([2]; 57 days): 0.2 | Geometric mean live fleas (LF) ([2]; 90 days): 0.0 | Geometric mean live fleas (LF) ([2]; 118 days): 0.9 | Geometric mean live fleas (LF) ([2]; 146 days): 0.8 | Geometric mean live fleas (LF) ([2]; 174 days): 13 | % Reduction live fleas ([2]; 25 mg/kg topical, 57 days): 98.6% | % Reduction live fleas ([2]; 25 mg/kg topical, 90 days): 100% | % Reduction live fleas ([2]; 25 mg/kg topical, 118 days): 98.6% | % Reduction live fleas ([2]; 25 mg/kg topical, 146 days): 98.3% | % Reduction live fleas ([2]; 25 mg/kg topical, 174 days): 74.3% | solubility for Compound 1 [3]: excellent | flux rates and permeation constants with increasing dimethyl isosorbide (FIG. 3) ([4]; 250 mg/mL, butyl digol:dimethyl isosorbide 90:10, 80:20, 60:40 v/v %): small reduction | flux rates and permeation constants versus oleic acid level (FIG. 4) ([4]; 250 mg/mL, butyl digol:oleic acid 95:5, 90:10, 80:20 v/v %): increase with increasing oleic acid levels | flux versus drug load (FIG. 2) ([4]; 50, 150 and 250 mg/mL in butyl digol:dimethyl isosorbide 90:10 v/v %): increased drug load correlates to increased flux | duration of contact activity against ticks following the topical dose ([5]; hair samples, I. scapularis and R. sanguineus): at least 26 days | # Dead Ticks (mean) ([5]; 2-4 hours post infestation): 0 | # Dead Ticks (mean) ([5]; 24 hours post infestation): 3.7 | # Dead Ticks (mean) ([5]; 48 hours post infestation): 7.3 | # Dead Ticks (mean) ([5]; 72 hours post infestation): 9.3 | % Reduction ([5]; 2-4 hours post infestation): 0.0% | % Reduction ([5]; 24 hours post infestation): 72.7% | % Reduction ([5]; 48 hours post infestation): 86.4% | % Reduction ([5]; 72 hours post infestation): 85.7% | # Dead Ticks (mean) ([6]; 2-4 hours post infestation): 0 | # Dead Ticks (mean) ([6]; 24 hours post infestation): 9.0 | # Dead Ticks (mean) ([6]; 48 hours post infestation): 9.3 | # Dead Ticks (mean) ([6]; 72 hours post infestation): 9.7 | % Reduction ([6]; 2-4 hours post infestation): 0.0% | % Reduction ([6]; 24 hours post infestation): 100.0% | % Reduction ([6]; 48 hours post infestation): 100.0% | % Reduction ([6]; 72 hours post infestation): 100.0%
